Experimental findings from publication PMC6616128, “Liquiritin, as a Natural Inhibitor of AKR1C1, Could Interfere With the Progesterone Metabolism” (Frontiers in Physiology, 2019) are described below.

The experiment deals with T1, AKR1C1 (Homo sapiens, UniProt Q04828).
T1 sequence (Q04828 1-323): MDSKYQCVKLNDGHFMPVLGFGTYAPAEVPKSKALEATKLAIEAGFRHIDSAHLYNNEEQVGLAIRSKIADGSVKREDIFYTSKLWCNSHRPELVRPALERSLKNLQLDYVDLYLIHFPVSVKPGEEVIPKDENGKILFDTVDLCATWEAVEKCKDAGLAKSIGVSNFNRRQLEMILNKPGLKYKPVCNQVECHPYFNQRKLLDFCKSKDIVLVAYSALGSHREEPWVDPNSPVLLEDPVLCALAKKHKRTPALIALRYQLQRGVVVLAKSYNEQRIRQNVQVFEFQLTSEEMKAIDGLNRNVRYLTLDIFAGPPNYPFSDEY
Put plainly: Enzyme activity (NADPH) assay with s-tetralol, recombinant GST-AKR1C1.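 For all read-outs here: GST-fused AKR1C1 expressed in E. coli and purified by glutathione affinity, control wells received DMSO instead of compound, duplicate samples from a single experiment.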 The experiment is classed as biochemical. On the set-up: made in house; host or cells: Escherichia coli JM109. Conditions: 2 μM compound, Supplementary Table 1; for slope: CON 0.0122; for enzyme activity: CON 192.295568; for ratio (activity relative to CON) / remaining activity at 2 µM: CON = 1; for remaining activity at 2 µM: read-out: ratio (activity relative to CON); for inhibition at 2 µM: read-out: % inhibition.

Experimental: GST-tagged recombinant AKR1C isoforms expressed JM109 was grown in Luria-Bertani broth (100 μg⋅ml-1 ampicillin, pH = 7.0) at 37°C with orbital shaking at 220 rpm. When cells achieved an OD600 nm between 0.4 and 0.6, 0.3 mM final concentration of isopropyl β-D-1-thiogalactopyranoside (IPTG) was added to the cultures and incubated for an additional 12 h at 25°C. Cells were harvested by centrifugation at 8000 g for 10 min, and the cell pellets were stored at -80°C for storage. The pellets were resuspended in 1 × PBS, pH = 7.4 and lysed by ultrasonication at ice-cold temperature using an UH-03 union instrument. The purification of glutathione-S-transferase (GST)-fusion AKR1C1, AKR1C2, and AKR1C3 were then carried out using ÄKTA systems from GE Healthcare as described in Handbook. The recombinant proteins were eluted in 50 mM Tris–HCl (pH = 8.0) with 20 mM reduced glutathione, fresh preparedly. Protein concentrations were determined using the Bradford protein assay kit. All proteins were aliquoted and stored at -80°C containing 20% glycerol.
To screen for the indicated inhibitor, the assay mixture was added with additional DMSO or 2 μM compounds. […] The inhibition patterns were determined by fitting initial velocity and inhibitor concentration into inhibition models using Graphpad Prism 6.0. All inhibition data were obtained from single experiments, with samples conducted in duplicate.
Firstly, we overexpressed recombinant human AKR1C in E. coli in the form of a GST-fusion protein, and then purified it by affinity chromatography on glutathione-Sepharose.
To screen for the inhibitors of AKR1C1, we developed a readily accessible indirect NADPH generating-based assay that can be used for high-throughput inhibitors screening. […] Wells were included containing enzyme and no inhibitor or 2 μM inhibitor.

Turning to `COc1cc2c(c(OC)c1OC)-c1c(cc(OC)c(OC)c1OC)C[C@](C)(O)[C@@H](C)C2` [Schisandrol A], the “% inhibition” value is reported as -12.27%, the slope worked out at 0.0137, the enzyme activity is reported as 215.8934 nmol/min/mg and the “ratio (activity relative to CON)” value was determined as 1.1227.

In the case of `O=C(/C=C/c1ccc(O)cc1)CC(=O)/C=C/c1ccc(O)cc1` [Bisdemethoxycurcumin], the slope was 0.0114, the enzyme activity is 180.2715 nmol/min/mg, the remaining activity at 2 µM amounted to 93.8% and the inhibition at 2 µM is 6.25%.

Regarding `COc1c2ccoc2cc2oc(=O)ccc12` [5-Methoxypsoralen], the slope is listed as 0.0121, the enzyme activity is 190.1339 nmol/min/mg, the remaining activity at 2 µM turned out to be 98.9% and the inhibition at 2 µM stood at 1.12%.

Turning to `COc1cc(C(=O)O[C@H]2[C@@H]3C=CO[C@@H](O[C@@H]4O[C@H](CO)[C@@H](O)[C@H](O)[C@H]4O)[C@@H]3[C@@]3(CO)O[C@@H]23)ccc1O` [Picroside Ⅱ], the slope amounted to 0.006957, the enzyme activity was 109.658 nmol/min/mg, the remaining activity at 2 µM was 57% and the inhibition at 2 µM is 43%.

For the compound `CC(C)=CCc1cc2c(cc1O)oc(=O)c1c3ccc(O)cc3oc21` [Psoralidin], the “% inhibition” value worked out at 2.25%, the slope was 0.0119, the enzyme activity was 187.9723 nmol/min/mg and the “ratio (activity relative to CON)” value worked out at 0.9775.

Consider (+)-Catechin hydrate, for which the “% inhibition” value is recorded as -7.87%, the slope was determined as 0.0132, the enzyme activity is on record as 207.427 nmol/min/mg and the “ratio (activity relative to CON)” value was 1.0787.

As for `Oc1cc(O)c2c(c1)O[C@H](c1cc(O)c(O)c(O)c1)[C@H](O)C2` [(−)-Epigallocatechin], the “% inhibition” value is reported as -7.17%, the slope amounted to 0.0131, the enzyme activity stood at 206.076 nmol/min/mg and the “ratio (activity relative to CON)” value is 1.0717.

Turning to `CC(C)=CCOc1c2occc2cc2ccc(=O)oc12` [Imperatorin], the slope stood at 0.0117, the enzyme activity worked out at 184.7298 nmol/min/mg, the remaining activity at 2 µM is 96.1% and the inhibition at 2 µM came to 3.93%.

For the compound `CC(C)=CCOc1c2ccoc2cc2oc(=O)ccc12` [Isoimperatorin], the slope is listed as 0.0108, the enzyme activity was 170.1838 nmol/min/mg, the remaining activity at 2 µM was 88.5% and the inhibition at 2 µM came out at 11.5%.

In the case of `COc1cc(O)c2c(c1)C(=O)c1cc(C)cc(O)c1C2=O` [Emodin-3-methyl ether], the “% inhibition” value is recorded as -4.57%, the slope is given as 0.0128, the enzyme activity amounted to 201.0772 nmol/min/mg and the “ratio (activity relative to CON)” value turned out to be 1.0457.

For the compound `O=c1c(O)c(-c2ccccc2)oc2cc(O)cc(O)c12` [3,5,7-Trihydroxyflavone], the slope is reported as 0.00928, the enzyme activity stood at 146.2707 nmol/min/mg, the remaining activity at 2 µM was found to be 76.1% and the inhibition at 2 µM stood at 23.9%.

As for `COc1ccc(-c2cc(=O)c3c(OC)c(OC)c(OC)c(OC)c3o2)cc1` [Tangeretin], the slope came to 0.0133, the enzyme activity is 209.3185 nmol/min/mg, the remaining activity at 2 µM is 109% and the inhibition at 2 µM is -8.85%.

Consider `O=C(O[C@@H]1Cc2c(O)cc(O)cc2O[C@@H]1c1ccc(O)c(O)c1)c1cc(O)c(O)c(O)c1` [(−)-Epicatechin gallate], for which the “% inhibition” value is 42.46%, the slope is reported as 0.00702, the enzyme activity was 110.6488 nmol/min/mg and the “ratio (activity relative to CON)” value is listed as 0.5754.

Take `COc1cc2c(cc1CC=C(C)C)C(=O)C[C@@H](c1ccc(O)cc1)O2` [Bavachinin A]: the slope is recorded as 0.009203, the enzyme activity turned out to be 145.0548 nmol/min/mg, the remaining activity at 2 µM is 75.4% and the inhibition at 2 µM was 24.6%.

Ginkgolide B: the “% inhibition” value was 34.68%, the slope turned out to be 0.007969, the enzyme activity is on record as 125.6001 nmol/min/mg and the “ratio (activity relative to CON)” value worked out at 0.6532.

Consider `CC(C)=CCC[C@](C)(O[C@@H]1O[C@H](CO)[C@@H](O)[C@H](O)[C@H]1O)[C@H]1CC[C@]2(C)[C@@H]1[C@H](O)C[C@@H]1[C@@]3(C)CC[C@H](O)C(C)(C)[C@@H]3CC[C@]12C` [Ginsenoside CK], for which the “% inhibition” value is reported as -0.56%, the slope turned out to be 0.0123, the enzyme activity is given as 193.3764 nmol/min/mg and the “ratio (activity relative to CON)” value is 1.0056.

Turning to `CC(C)=CC[C@@H](O)C1=CC(=O)c2c(O)ccc(O)c2C1=O` [Shikonin], the slope is 0.0134, the enzyme activity came to 210.4443 nmol/min/mg, the remaining activity at 2 µM was 109% and the inhibition at 2 µM was -9.44%.

As for `COc1cc2c(=O)c(-c3ccc(O)cc3)coc2cc1O` [Glycitein], the slope stood at 0.0086, the enzyme activity is listed as 135.5526 nmol/min/mg, the remaining activity at 2 µM turned out to be 70.5% and the inhibition at 2 µM is 29.5%.

Consider `Oc1cc(O)c2c(c1)O[C@H](c1ccc(O)c(O)c1)[C@H](O)C2` [Epicatechin], for which the slope worked out at 0.0136, the enzyme activity came to 214.5874 nmol/min/mg, the remaining activity at 2 µM is 112% and the inhibition at 2 µM was -11.6%.

For `O=c1c(O[C@@H]2O[C@H](CO)[C@@H](O)[C@H](O)[C@H]2O)c(-c2ccc(O)cc2)oc2cc(O)cc(O)c12` [Astragalin], the slope worked out at 0.007614, the enzyme activity turned out to be 120.0159 nmol/min/mg, the remaining activity at 2 µM amounted to 62.4% and the inhibition at 2 µM was determined as 37.6%.

As to `COc1ccc(-c2cc(=O)c3c(OC)c(OC)c(OC)c(OC)c3o2)cc1OC` [Nobiletin], the slope was 0.0127, the enzyme activity was determined as 200.1315 nmol/min/mg, the remaining activity at 2 µM was determined as 104% and the inhibition at 2 µM is -4.07%.

`C[C@@H]1O[C@@H](O[C@@H]2[C@@H](O)[C@H](OCCc3ccc(O)c(O)c3)O[C@H](CO)[C@H]2OC(=O)/C=C/c2ccc(O)c(O)c2)[C@H](O)[C@H](O)[C@H]1O` [Acteoside]: the slope came to 0.0123, the enzyme activity was determined as 194.5022 nmol/min/mg, the remaining activity at 2 µM stood at 101% and the inhibition at 2 µM was -1.15%.

For `COc1cc(C(=O)OCCCCN=C(N)N)cc(OC)c1O.Cl` [Leonurine hydrochloride], the “% inhibition” value was 40.77%, the slope worked out at 0.007226, the enzyme activity is on record as 113.8912 nmol/min/mg and the “ratio (activity relative to CON)” value stood at 0.5923.

Salvianolic acid B: the “% inhibition” value is 31.38%, the slope amounted to 0.008371, the enzyme activity is listed as 131.9499 nmol/min/mg and the “ratio (activity relative to CON)” value worked out at 0.6862.

For the compound `COc1cc(-c2oc3cc(O)cc(O)c3c(=O)c2O)ccc1O` [Isorhamnetin], the slope is reported as 0.0125, the enzyme activity is 197.0241 nmol/min/mg, the remaining activity at 2 µM amounted to 102% and the inhibition at 2 µM was -2.46%.
